Results published in ChEMBL document CHEMBL4052638, “Multitarget trehalose-carnosine conjugates inhibit Aβ aggregation, tune copper(II) activity and decrease acrolein toxicity” (Eur J Med Chem, 2017).
The source made the active and inactive calls. The rule behind the calls is not given here.

Columns and labels:
[1] = target: Amyloid-beta precursor protein (Homo sapiens) (UniProt P05067); test: Inhibition of amyloid beta (1 to 42) (unknown origin) self induced aggregation assessed as fluorescence emission rate constant K at 40 to 5000 uM […] by ThT-based fluorometric method (reference value: 1.3 +/- 0.1)
Sequence of Amyloid-beta precursor protein (Homo sapiens) (P05067 whole entry): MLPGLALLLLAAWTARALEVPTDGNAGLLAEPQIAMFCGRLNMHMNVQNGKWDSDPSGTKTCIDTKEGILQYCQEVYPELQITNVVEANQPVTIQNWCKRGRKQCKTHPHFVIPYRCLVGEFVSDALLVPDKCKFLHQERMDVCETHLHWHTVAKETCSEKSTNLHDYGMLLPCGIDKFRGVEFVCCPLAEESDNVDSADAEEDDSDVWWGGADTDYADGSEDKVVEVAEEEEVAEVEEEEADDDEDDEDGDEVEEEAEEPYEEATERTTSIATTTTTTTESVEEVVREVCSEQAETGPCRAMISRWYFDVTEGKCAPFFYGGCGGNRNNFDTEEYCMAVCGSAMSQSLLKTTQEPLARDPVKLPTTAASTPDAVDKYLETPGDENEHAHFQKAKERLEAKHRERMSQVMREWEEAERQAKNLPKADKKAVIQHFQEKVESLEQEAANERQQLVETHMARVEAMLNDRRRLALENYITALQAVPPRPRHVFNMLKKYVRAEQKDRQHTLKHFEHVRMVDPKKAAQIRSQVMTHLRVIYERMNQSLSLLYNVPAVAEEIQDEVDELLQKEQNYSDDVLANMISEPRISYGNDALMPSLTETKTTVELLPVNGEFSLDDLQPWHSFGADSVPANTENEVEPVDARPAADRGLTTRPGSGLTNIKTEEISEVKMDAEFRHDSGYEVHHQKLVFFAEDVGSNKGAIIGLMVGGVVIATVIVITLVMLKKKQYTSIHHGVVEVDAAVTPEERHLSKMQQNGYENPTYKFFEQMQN

[2] = target: Amyloid-beta precursor protein (Homo sapiens) (UniProt P05067); test: Inhibition of amyloid beta (1 to 42) (unknown origin) self induced aggregation assessed as difference between final and initial fluorescence emission at 40 to 5000 uM […] by ThT-based fluorometric method (reference value: 52 +/- 7 a.u.)
[3] = target: Amyloid-beta precursor protein (Homo sapiens) (UniProt P05067); test: (§1) Inhibition of amyloid beta (1 to 42) (unknown origin) self induced aggregation assessed as time at which amplitude of ThT emission is 50% of difference between final and initial fluorescence emission at 40 to 5000 uM after 3 hrs by ThT-based fluorometric method (reference value: 11 +/- 1 hrs)
[4] = target: Amyloid-beta precursor protein (Homo sapiens) (UniProt P05067); test: Inhibition of amyloid beta (1 to 42) (unknown origin) self induced aggregation assessed as lag time at 40 to 5000 uM […] by ThT-based fluorometric method (reference value: 8.3 +/- 0.7 hrs)
[5] = target: Amyloid-beta precursor protein (Homo sapiens) (UniProt P05067); test: Inhibition of amyloid beta (1 to 42) (unknown origin) self induced aggregation […] by ThT-based fluorometric method
[6] = target: Amyloid-beta precursor protein (Homo sapiens) (UniProt P05067); test: Inhibition of amyloid beta (1 to 42) (unknown origin) self induced aggregation assessed as reduction in flat ribbons formation at 500 uM after 30 hrs by atomic force microscopic analysis
[7] = target: Amyloid-beta precursor protein (Homo sapiens) (UniProt P05067); test: Inhibition of amyloid beta (1 to 42) (unknown origin) self induced aggregation assessed as reduction in protofibrils formation at 500 uM after 30 hrs by atomic force microscopic analysis
[8] = Inhibition of cupric ion-mediated amyloid beta (1 to 40) aggregation at 20 mM at pH 6.6 after 3 hrs by light scattering assay
[9] = target: Amyloid-beta precursor protein (Homo sapiens) (UniProt P05067); test: Inhibition of amyloid beta (1 to 42) (unknown origin) self induced aggregation assessed as difference between final and initial fluorescence emission at 40 to 5000 uM […] in presence of trehalose by ThT-based fluorometric method (reference value: 52 +/- 7 a.u.)
[10] = target: Amyloid-beta precursor protein (Homo sapiens) (UniProt P05067); test: Inhibition of amyloid beta (1 to 42) (unknown origin) self induced aggregation assessed as fluorescence emission rate constant K at 40 to 5000 uM […] in presence of trehalose by ThT-based fluorometric method (reference value: 1.3 +/- 0.1)
[11] = target: Amyloid-beta precursor protein (Homo sapiens) (UniProt P05067); test: as §1, with “in presence of trehalose” for “after 3 hrs”
[12] = target: Amyloid-beta precursor protein (Homo sapiens) (UniProt P05067); test: Inhibition of amyloid beta (1 to 42) (unknown origin) self induced aggregation assessed as Tlag at 40 to 5000 uM in presence of trehalose by ThT-based fluorometric method (reference value: 8.3 +/- 0.7 hrs)
[13] = Antiglycating activity in phosphate buffer assessed as decrease in ACR levels at 10 mM at pH 7.4 by RP-HPLC analysis; type: physicochemical; settings: pH 7.4, 10000 µM, TDE = time-dependent effect
[14] = Antiglycating activity in phosphate buffer assessed as ACR-compound adduct formation at 10 mM at pH 7.4 after 1 to 24 hrs by HPLC-MS/MS spectra analysis; type: physicochemical; settings: pH 7.4, 10000 µM
[15] = Stability of the compound assessed as human recombinant carnosinase mediated compound hydrolysis at 0.5 mM after 2.5 hrs by RP-HPLC analysis; type: ADME; settings: 500 µM
[16] = target: Amyloid-beta precursor protein (Homo sapiens) (UniProt P05067); test: Inhibition of amyloid beta (1 to 42) (unknown origin) self induced aggregation assessed as average assembled nanostructure height at 500 uM after 30 hrs by atomic force microscopic analysis
[17] = Antiglycating activity in phosphate buffer assessed as ACR levels at 10 mM at pH 7.4 after 24 hr by RP-HPLC analysis relative to control; type: physicochemical; settings: pH 7.4, 24 h, 10000 µM
[18] = Antiglycating activity in phosphate buffer assessed as decrease in ACR levels at 10 mM at pH 7.4 after 1 hr by RP-HPLC analysis relative to control; type: physicochemical; set-up: scale not given: the % may be the effect or the level left; settings: pH 7.4, 1 h, 10000 µM
[19] = Antiglycating activity in phosphate buffer assessed as decrease in ACR levels at 10 mM at pH 7.4 up to 4 hrs by RP-HPLC analysis relative to control; type: physicochemical; set-up: scale not given: the % may be the effect or the level left; settings: pH 7.4, 4 h, 10000 µM
[20] = Drug metabolism assessed as human recombinant carnosinase mediated compound hydrolysis at 0.5 mM after 1.5 hrs by RP-HPLC analysis; type: ADME; settings: 500 µM

Structure (SMILES)	K [1]	Activity [2] [a.u.]	T1/2 [3] [h]	Tlag [4] [h]	Activity [5]	inhibition [6]	inhibition [7]	inhibition [8]	Activity [9] [a.u.]	K [10]	T1/2 [11] [h]	Tlag [12] [h]	Activity [13]	Activity [14]	Stability [15]	Activity [16] [nm]	Activity [17] [%]	Activity [18] [%]	Activity [19] [%]	Drug metabolism [20]
OC[C@H]1O[C@H](O[C@H]2O[C@H](CO)[C@@H](O)[C@H](O)[C@H]2O)[C@H](O)[C@@H](O)[C@@H]1O	1.7	37	8.3	4.7	Dose-dependent effect															
NCCC(=O)N[C@@H](Cc1c[nH]cn1)C(=O)O	1.9	33	7.8	3.9	Dose-dependent effect	inactive	inactive	Active	31	2.7	5.8	4.3								
O=C(CCNC[C@H]1O[C@H](O[C@H]2O[C@H](CO)[C@@H](O)[C@H](O)[C@H]2O)[C@H](O)[C@@H](O)[C@@H]1O)N[C@@H](Cc1c[nH]cn1)C(=O)O	0.7	6	4.1	2.7	Dose-dependent effect	Active	Active	Active					Tde	Active	Stable	2.1	1			
NCCC(=O)N[C@@H](Cc1cnc[nH]1)C(=O)O [CARNOSINE]														Active			0	40	0	Metabolite_Detected
